The target in assay [1] is Fibroblast growth factor receptor 2 (Homo sapiens) (UniProt P21802). Nature of the assay: Inhibition of human FGFR2 catalytic domain expressed in baculovirus assessed as substrate phosphorylation using fluorescence-labelled peptides as substrate at 8 uM after 90 mins by microfluidic peptide phosphorylation assay.
Assay [2] deals with Tyrosine-protein kinase ABL2 (Homo sapiens) (UniProt P42684). Nature of the assay: Inhibition of human truncated Arg expressed in baculovirus assessed as substrate phosphorylation using fluorescence-labelled peptides as substrate at 8 uM after 90 mins by microfluidic peptide phosphorylation assay.
For assay [3], the target named is Calcium/calmodulin-dependent protein kinase type II subunit beta (Homo sapiens) (UniProt Q13554). As to the kind of experiment: Inhibition of human CAMK2 beta catalytic domain expressed in baculovirus assessed as substrate phosphorylation using fluorescence-labelled peptides as substrate at 420 uM after 90 mins by microfluidic peptide phosphorylation assay.
Assay [4] concerns the target Mitogen-activated protein kinase 1 (Homo sapiens) (UniProt P28482). The settings on record: 0.1 uM.
Description: Inhibition of human full length ERK2 expressed in Escherichia coli cell assessed as substrate phosphorylation using fluorescence-labelled peptides as substrate at 0.1 uM after 90 mins by microfluidic peptide phosphorylation assay
For assay [5], the target named is T1, Cytoplasmic tyrosine-protein kinase BMX (Homo sapiens) (UniProt P51813).
T1 sequence (whole entry): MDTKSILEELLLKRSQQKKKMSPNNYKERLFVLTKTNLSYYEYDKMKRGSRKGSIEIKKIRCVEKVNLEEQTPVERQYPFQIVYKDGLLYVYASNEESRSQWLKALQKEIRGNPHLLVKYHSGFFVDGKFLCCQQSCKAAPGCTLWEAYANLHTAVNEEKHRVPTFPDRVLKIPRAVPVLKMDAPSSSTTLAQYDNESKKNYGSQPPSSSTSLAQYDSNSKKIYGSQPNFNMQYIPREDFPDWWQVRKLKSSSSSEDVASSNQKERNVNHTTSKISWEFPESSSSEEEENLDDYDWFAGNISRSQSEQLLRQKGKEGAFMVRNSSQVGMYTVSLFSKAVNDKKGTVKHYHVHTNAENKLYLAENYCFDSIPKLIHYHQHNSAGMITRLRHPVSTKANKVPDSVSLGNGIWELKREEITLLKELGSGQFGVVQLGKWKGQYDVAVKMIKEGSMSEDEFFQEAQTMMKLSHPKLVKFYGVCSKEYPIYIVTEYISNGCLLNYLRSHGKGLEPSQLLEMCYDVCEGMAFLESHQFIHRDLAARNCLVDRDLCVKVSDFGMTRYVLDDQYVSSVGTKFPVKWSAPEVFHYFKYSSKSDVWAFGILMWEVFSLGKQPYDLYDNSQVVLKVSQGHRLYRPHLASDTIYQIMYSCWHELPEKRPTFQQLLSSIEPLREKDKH
As to the kind of experiment: Inhibition of human full length BMX expressed in baculovirus assessed as substrate phosphorylation using fluorescence-labelled peptides as substrate at 0.06 uM after 90 mins by microfluidic peptide phosphorylation assay.

For assay [6], the target named is Tyrosine-protein kinase ABL2 (Homo sapiens) (UniProt P42684). Nature of the assay: Inhibition of human truncated Arg expressed in baculovirus assessed as substrate phosphorylation using fluorescence-labelled peptides as substrate at 0.06 uM after 90 mins by microfluidic peptide phosphorylation assay.
Assay [7] concerns the target T2, MAP kinase-activated protein kinase 5 (Homo sapiens) (UniProt Q8IW41).
T2 sequence (whole entry): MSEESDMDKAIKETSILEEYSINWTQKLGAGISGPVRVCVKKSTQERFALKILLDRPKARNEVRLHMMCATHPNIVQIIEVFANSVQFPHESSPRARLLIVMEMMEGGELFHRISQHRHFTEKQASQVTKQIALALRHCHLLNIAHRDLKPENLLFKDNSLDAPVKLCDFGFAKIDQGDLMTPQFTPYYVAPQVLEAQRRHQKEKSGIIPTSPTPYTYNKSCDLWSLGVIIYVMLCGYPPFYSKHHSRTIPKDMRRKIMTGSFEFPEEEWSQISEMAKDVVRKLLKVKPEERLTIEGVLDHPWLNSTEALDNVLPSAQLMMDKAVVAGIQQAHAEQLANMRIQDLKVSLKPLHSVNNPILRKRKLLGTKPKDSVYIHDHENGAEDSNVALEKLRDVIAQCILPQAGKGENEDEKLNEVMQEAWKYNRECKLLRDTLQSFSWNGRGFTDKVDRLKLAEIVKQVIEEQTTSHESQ
As to the kind of experiment: Inhibition of human full length PRAK expressed in baculovirus assessed as substrate phosphorylation using fluorescence-labelled peptides as substrate at 0.06 uM after 90 mins by microfluidic peptide phosphorylation assay.

Assay [8] deals with Ribosomal protein S6 kinase alpha-2 (Homo sapiens) (UniProt Q15349). As to the kind of experiment: Inhibition of human full length RSK3 expressed in baculovirus assessed as substrate phosphorylation using fluorescence-labelled peptides as substrate at 0.2 uM after 90 mins by microfluidic peptide phosphorylation assay.
Assay [9] deals with T3, Calcium/calmodulin-dependent protein kinase type IV (Homo sapiens) (UniProt Q16566).
T3 sequence (whole entry): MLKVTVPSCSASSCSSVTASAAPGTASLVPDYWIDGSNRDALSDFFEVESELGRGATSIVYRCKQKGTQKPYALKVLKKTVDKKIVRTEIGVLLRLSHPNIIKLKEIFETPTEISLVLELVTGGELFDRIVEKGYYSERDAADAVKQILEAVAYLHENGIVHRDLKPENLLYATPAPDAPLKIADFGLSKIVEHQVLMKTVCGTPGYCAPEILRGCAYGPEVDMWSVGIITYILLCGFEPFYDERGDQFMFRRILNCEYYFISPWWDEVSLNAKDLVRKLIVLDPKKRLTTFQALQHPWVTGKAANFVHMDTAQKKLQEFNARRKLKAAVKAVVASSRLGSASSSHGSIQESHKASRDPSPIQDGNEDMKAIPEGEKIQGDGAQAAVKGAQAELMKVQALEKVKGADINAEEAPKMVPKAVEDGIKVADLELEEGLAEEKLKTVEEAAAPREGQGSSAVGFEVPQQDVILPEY
As to the kind of experiment: Inhibition of human full length CAMK4 expressed in baculovirus assessed as substrate phosphorylation using fluorescence-labelled peptides as substrate at 9 uM after 90 mins by microfluidic peptide phosphorylation assay.

Assay [10] deals with Serine/threonine-protein kinase MARK2 (Homo sapiens) (UniProt Q7KZI7). Nature of the assay: Inhibition of human full length MARK2 expressed in baculovirus assessed as substrate phosphorylation using fluorescence-labelled peptides as substrate at 70 uM after 90 mins by microfluidic peptide phosphorylation assay.
Assay [11] addresses Ribosomal protein S6 kinase alpha-2 (Homo sapiens) (UniProt Q15349). Nature of the assay: Inhibition of human full length RSK3 expressed in baculovirus assessed as substrate phosphorylation using fluorescence-labelled peptides as substrate at 70 uM after 90 mins by microfluidic peptide phosphorylation assay.
The target in assay [12] is Casein kinase I isoform alpha (Homo sapiens) (UniProt P48729). As to the kind of experiment: Inhibition of human full length CSNK1A1 expressed in baculovirus assessed as substrate phosphorylation using fluorescence-labelled peptides as substrate at […] after 90 mins by microfluidic peptide phosphorylation assay.
Sequence of Casein kinase I isoform alpha (Homo sapiens) (P48729 2-337 limits assumed): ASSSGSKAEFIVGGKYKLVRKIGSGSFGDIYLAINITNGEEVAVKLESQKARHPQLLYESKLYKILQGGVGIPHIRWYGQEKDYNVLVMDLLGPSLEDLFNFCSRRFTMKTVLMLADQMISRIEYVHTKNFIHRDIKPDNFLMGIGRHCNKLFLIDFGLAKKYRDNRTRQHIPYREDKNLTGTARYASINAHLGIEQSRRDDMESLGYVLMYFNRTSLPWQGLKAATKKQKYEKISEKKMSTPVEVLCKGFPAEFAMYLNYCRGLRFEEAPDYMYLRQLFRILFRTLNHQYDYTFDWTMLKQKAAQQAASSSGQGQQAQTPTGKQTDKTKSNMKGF

Sequence of Tyrosine-protein kinase ABL2 (Homo sapiens) (P42684 whole entry, the tested form may be a part): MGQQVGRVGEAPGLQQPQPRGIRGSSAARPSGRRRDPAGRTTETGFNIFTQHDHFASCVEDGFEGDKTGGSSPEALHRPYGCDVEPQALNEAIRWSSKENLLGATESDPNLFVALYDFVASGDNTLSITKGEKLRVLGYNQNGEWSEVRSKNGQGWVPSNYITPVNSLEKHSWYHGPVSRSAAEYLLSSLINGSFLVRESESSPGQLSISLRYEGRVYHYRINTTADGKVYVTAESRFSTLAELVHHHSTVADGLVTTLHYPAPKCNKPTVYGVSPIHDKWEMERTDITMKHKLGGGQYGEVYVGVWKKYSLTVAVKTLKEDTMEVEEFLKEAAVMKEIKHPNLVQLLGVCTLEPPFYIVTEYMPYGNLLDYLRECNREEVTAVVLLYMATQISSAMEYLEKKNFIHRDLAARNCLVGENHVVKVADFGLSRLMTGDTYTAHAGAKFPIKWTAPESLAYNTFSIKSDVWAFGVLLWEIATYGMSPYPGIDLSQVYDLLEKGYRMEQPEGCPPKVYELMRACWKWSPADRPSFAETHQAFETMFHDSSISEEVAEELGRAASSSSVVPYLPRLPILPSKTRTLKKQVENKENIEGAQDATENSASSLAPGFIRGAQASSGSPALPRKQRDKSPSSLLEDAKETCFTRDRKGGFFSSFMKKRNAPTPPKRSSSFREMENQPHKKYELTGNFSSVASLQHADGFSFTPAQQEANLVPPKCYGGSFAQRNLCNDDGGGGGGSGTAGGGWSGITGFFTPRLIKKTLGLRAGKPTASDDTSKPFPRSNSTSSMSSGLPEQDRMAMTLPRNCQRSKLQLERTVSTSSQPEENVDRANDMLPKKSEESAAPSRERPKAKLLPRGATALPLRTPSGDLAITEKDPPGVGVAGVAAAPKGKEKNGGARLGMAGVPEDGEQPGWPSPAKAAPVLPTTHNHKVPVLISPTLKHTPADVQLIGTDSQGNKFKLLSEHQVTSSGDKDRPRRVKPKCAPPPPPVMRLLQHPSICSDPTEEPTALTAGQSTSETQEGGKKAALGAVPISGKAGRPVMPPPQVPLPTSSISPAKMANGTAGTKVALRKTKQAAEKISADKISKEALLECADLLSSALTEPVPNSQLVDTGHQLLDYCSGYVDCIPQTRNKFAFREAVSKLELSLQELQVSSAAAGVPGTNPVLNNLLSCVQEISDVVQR
Sequence of Ribosomal protein S6 kinase alpha-2 (Homo sapiens) (Q15349 whole entry, canonical isoform): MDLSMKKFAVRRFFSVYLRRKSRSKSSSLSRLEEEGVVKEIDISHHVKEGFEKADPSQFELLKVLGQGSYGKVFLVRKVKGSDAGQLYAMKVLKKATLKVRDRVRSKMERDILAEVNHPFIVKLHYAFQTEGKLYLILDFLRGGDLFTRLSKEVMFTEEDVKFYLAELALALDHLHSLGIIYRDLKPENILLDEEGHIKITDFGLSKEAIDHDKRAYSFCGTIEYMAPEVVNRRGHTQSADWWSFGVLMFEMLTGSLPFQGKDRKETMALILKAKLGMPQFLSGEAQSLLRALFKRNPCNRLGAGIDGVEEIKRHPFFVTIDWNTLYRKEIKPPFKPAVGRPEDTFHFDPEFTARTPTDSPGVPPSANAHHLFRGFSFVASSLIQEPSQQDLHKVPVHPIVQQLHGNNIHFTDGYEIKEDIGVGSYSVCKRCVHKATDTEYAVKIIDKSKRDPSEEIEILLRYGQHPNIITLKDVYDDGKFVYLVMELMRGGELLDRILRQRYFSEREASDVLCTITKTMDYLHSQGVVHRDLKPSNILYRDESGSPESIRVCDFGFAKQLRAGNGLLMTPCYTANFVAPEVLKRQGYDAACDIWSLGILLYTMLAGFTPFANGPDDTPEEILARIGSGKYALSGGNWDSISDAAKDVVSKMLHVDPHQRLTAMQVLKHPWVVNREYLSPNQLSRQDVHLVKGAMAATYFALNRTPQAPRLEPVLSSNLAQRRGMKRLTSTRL
Sequence of Fibroblast growth factor receptor 2 (Homo sapiens) (P21802 22-821 limits assumed): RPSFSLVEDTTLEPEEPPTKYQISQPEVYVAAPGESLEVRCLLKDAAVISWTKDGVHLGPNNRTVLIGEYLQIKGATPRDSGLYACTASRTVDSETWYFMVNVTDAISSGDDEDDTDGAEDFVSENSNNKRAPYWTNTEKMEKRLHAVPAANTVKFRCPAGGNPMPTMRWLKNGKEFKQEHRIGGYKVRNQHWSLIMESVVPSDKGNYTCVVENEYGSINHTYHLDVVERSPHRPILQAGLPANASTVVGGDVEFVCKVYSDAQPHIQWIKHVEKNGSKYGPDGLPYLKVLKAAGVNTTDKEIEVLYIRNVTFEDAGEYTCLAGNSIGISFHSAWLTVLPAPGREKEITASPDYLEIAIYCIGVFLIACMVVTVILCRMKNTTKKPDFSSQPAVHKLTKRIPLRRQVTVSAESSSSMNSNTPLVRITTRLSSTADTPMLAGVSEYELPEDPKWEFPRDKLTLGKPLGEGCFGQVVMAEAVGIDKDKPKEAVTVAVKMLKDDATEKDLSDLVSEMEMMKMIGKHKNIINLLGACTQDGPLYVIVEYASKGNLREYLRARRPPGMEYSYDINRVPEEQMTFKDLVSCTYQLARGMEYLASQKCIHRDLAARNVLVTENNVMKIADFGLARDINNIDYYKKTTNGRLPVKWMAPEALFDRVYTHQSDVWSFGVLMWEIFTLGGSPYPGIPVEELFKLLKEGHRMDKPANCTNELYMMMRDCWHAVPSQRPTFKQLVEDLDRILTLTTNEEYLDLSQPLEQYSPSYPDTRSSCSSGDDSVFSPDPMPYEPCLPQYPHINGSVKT
Sequence of Mitogen-activated protein kinase 1 (Homo sapiens) (P28482 whole entry): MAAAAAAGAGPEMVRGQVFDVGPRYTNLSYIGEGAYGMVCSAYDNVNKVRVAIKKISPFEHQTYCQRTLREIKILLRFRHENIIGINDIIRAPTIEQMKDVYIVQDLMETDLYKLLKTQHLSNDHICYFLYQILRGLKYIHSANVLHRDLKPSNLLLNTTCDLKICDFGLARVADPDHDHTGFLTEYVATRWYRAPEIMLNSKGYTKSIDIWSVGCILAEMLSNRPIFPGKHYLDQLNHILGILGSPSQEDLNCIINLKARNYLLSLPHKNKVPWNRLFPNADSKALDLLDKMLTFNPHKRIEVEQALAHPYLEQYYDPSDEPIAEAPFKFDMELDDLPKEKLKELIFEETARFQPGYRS
Sequence of Serine/threonine-protein kinase MARK2 (Homo sapiens) (Q7KZI7 whole entry): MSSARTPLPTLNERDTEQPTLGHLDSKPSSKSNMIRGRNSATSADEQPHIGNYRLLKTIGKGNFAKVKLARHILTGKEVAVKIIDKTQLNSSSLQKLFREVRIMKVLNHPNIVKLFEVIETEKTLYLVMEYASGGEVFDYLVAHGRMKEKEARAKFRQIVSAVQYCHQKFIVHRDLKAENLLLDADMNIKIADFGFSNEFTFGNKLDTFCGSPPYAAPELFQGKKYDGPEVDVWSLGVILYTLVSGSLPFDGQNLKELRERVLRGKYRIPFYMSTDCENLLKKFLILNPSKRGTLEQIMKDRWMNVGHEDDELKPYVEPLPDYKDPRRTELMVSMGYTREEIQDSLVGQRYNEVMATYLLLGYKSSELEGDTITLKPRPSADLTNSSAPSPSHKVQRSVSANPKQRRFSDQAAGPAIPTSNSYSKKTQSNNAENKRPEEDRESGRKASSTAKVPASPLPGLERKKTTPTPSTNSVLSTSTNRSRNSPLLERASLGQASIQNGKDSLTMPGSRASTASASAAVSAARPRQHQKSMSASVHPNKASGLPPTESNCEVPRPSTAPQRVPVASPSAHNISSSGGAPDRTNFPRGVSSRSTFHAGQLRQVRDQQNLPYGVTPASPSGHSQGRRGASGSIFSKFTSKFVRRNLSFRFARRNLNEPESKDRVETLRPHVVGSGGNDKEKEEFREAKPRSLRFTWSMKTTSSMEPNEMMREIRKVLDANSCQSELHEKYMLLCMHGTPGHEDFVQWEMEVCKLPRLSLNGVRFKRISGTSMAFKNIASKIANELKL
Sequence of Calcium/calmodulin-dependent protein kinase type II subunit beta (Homo sapiens) (Q13554 whole entry, the tested form may be a part): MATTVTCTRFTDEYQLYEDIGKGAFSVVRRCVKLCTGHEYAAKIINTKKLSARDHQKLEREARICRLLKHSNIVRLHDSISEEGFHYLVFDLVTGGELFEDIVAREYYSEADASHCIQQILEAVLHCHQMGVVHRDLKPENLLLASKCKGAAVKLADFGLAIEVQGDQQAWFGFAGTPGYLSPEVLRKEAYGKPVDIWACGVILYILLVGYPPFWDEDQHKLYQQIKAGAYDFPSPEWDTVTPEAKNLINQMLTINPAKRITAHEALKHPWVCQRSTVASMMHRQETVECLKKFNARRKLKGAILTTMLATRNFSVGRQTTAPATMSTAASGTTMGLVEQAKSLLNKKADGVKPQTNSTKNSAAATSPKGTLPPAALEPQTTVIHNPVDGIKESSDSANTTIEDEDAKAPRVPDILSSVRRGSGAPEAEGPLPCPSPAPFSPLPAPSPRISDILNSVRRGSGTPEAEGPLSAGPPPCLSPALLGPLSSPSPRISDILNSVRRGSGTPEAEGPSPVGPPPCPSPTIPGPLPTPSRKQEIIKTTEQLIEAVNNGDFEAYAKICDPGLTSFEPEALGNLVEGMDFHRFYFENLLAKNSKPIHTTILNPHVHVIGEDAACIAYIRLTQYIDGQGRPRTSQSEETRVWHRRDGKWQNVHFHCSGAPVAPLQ

Take `NCC1CCN(c2ncnc3[nH]ccc23)CC1`: the inhibition (in general, the change of the read-out against control, counted positive when it falls) in assay [1] turned out to be 29.5%; in [2], 3.5%.

As to `c1nc(N2CCOCC2)c2nc[nH]c2n1`, the inhibition in [3] came to 20.5%. In assay [4], `C[C@H](CN(C)C)Oc1nc(Nc2cc3cccc(Cl)c3cn2)cnc1C#N` had an inhibition of 0%. Turning to `NC1(Cc2ccc(Cl)cc2)CCN(c2ncnc3[nH]ccc23)CC1`, the results for the inhibition in assay [5], in assay [6] and in [7] were 0%, 5% and 0%, respectively. As for `Clc1ccc(C2(c3ccc(-c4ncnc5[nH]cnc45)cc3)CCNCC2)cc1`, the inhibition in assay [8] came out at 40%. In the case of `NCC1CN(c2ncnc3[nH]c4cnccc4c23)CCO1` (configuration not stated), in assay [9], the inhibition was 31.5%. With `CNCc1ccc(-c2ncnc3[nH]cnc23)cc1`, the inhibition in assay [10] came out at 61%; in assay [11], 81%. Consider `COC(=O)c1cnc(Nc2cnc(C#N)cn2)cc1NCC1CCNCC1`, for which the inhibition in [12] turned out to be 2%.

Values taken from ChEMBL document CHEMBL3132769, “Fragment growing to retain or alter the selectivity of anchored kinase hinge-binding fragments” (Medchemcomm, 2014).
